Results from ChEMBL document CHEMBL1149766, “Quantitative structure activity relationship studies on thiourea analogues as influenza virus neuraminidase inhibitors” (Eur J Med Chem, 2008).

Target: Neuraminidase (Influenza A virus, UniProt B4URF0)
Experiment: Inhibition of Influenza A virus neuraminidase activity

Sequence of Neuraminidase (B4URF0 whole entry): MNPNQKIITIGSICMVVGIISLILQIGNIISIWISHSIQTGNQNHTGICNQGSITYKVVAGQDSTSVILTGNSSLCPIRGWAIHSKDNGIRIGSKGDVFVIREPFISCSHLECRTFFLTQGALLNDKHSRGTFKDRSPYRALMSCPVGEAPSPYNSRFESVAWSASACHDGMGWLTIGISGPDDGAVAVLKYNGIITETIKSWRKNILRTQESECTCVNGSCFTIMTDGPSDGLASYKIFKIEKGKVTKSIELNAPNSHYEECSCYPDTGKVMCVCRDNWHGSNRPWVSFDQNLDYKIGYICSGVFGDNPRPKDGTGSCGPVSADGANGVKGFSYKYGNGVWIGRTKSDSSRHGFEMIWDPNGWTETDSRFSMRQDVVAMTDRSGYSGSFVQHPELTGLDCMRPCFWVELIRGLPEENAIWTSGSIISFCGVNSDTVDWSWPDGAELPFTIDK

| SMILES | IC50 [nM] |
| --- | --- |
| COc1cc(Cl)nc(NC(=S)NC(=O)c2ccc(Cl)nc2)n1 | > 20000 |
| COc1cc(OC)nc(NC(=S)NC(=O)c2cnc(Cl)c(Cl)c2)n1 | 18500 |
| Cc1cc(C)nc(NC(=S)NC(=O)C2C(/C=C(\Cl)C(F)(F)F)C2(C)C)n1 (stereo not given) | 580 |
| COc1cc(C)nc(NC(=S)NC(=O)c2ccc(-c3ccccc3Cl)o2)n1 | > 20000 |
| COc1cc(C)nc(NC(=S)NC(=O)c2ccc(-c3ccc([N+](=O)[O-])cc3)o2)n1 | 1220 |
| Cc1cc(C)nc(NC(=S)NC(=O)c2ccc(Cl)cc2F)n1 | 1360 |
| CCOc1cc(Cl)nc(NC(=S)NC(=O)c2ccc(-c3ccccc3Cl)o2)n1 | > 20000 |
| Cc1cc(C)nc(NC(=S)NC(=O)c2cccnc2Cl)n1 | 7190 |
| COc1cc(OC)nc(NC(=S)NC(=O)c2cccnc2)n1 | > 20000 |
| Cc1cc(O)nc(NC(=S)NC(=O)c2ccc(-c3ccccc3Cl)o2)n1 | 320 |
| O=C(NC(=S)Nc1nc(Cl)cc(Cl)n1)c1ccc(-c2ccc([N+](=O)[O-])cc2)o1 | 1660 |
| Cc1cc(O)nc(NC(=S)NC(=O)c2ccc(-c3ccc([N+](=O)[O-])cc3)o2)n1 | 360 |
| CC(C)(C)NC(=O)NC(=S)NC(=O)c1c(F)cccc1F | 1430 |
| CCOc1cc(OCC)nc(NC(=S)NC(=O)C(c2ccc(Cl)cc2)C(C)C)n1 (stereo not given) | 310 |
| CC(C)(C)NC(=O)NC(=S)NC(=O)c1ccccc1 | 1790 |
| COc1cc(Cl)nc(NC(=S)NC(=O)c2ccc(Cl)cc2F)n1 | 5100 |
| COc1cc(Cl)nc(NC(=S)NC(=O)c2ccc(-c3ccccc3Cl)o2)n1 | 1290 |
| Cc1cc(C)nc(NC(=S)NC(=O)c2ccccc2)n1 | 2100 |
| CCOc1cc(OCC)nc(NC(=S)NC(=O)c2ccc(-c3ccccc3Cl)o2)n1 | 80 |
| CCOc1cc(OCC)nc(NC(=S)NC(=O)c2ccc(-c3ccc([N+](=O)[O-])cc3)o2)n1 | > 20000 |

| SMILES | IC50 [nM] |
| --- | --- |
| COc1cc(C)nc(NC(=S)NC(=O)c2ccc(Cl)nc2)n1 | > 20000 |
| CC(C)(C)NC(=O)NC(=S)NC(=O)c1ccc(-c2ccccc2Cl)o1 | 1420 |
| COc1cc(OC)nc(NC(=S)NC(=O)C2C(/C=C(\Cl)C(F)(F)F)C2(C)C)n1 (stereo not given) | 970 |
| CCOc1cc(Cl)nc(NC(=S)NC(=O)c2cccnc2Cl)n1 | > 20000 |
| CC(C)(C)NC(=O)NC(=S)NC(=O)COc1ccc(Cl)cc1Cl | 1670 |
| COc1cc(OC)nc(NC(=S)NC(=O)c2ccc(-c3ccccc3Cl)o2)n1 | 1770 |
| CCOc1cc(OCC)nc(NC(=S)NC(=O)c2cccnc2Cl)n1 | > 20000 |
| CCOc1cc(C)nc(NC(=S)NC(=O)c2ccc(-c3ccccc3Cl)o2)n1 | 1650 |
| CC(C)[C@H](C(=O)NC(=S)NC(=O)NC(C)(C)C)c1ccc(Cl)cc1 | 1350 |
| CC(C)(C)NC(=O)NC(=S)NC(=O)[C@@H]1[C@H](/C=C(\Cl)C(F)(F)F)C1(C)C | 510 |
| CC(C)(C)NC(=O)NC(=S)NC(=O)c1ccc(-c2ccc([N+](=O)[O-])cc2)o1 | 1300 |
| CC(C)(C)NC(=O)NC(=S)NC(=O)[C@H]1[C@H](C=C(Cl)Cl)C1(C)C | 260 |
| Cc1cc(O)nc(NC(=S)NC(=O)c2ccc(Cl)nc2)n1 | 8580 |
| CCOc1cc(OCC)nc(NC(=S)NC(=O)c2ccc(Cl)nc2)n1 | > 20000 |
| CCOc1cc(C)nc(NC(=S)NC(=O)c2ccc(-c3ccc([N+](=O)[O-])cc3)o2)n1 | 2300 |
| CC(C)C(C(=O)NC(=S)Nc1nc(Cl)cc(Cl)n1)c1ccc(Cl)cc1 (stereo not given) | > 20000 |
| COC(=O)NC(=S)NC(=O)NC(C)(C)C | 1830 |
| O=C(NC(=S)Nc1nc(Cl)cc(Cl)n1)c1ccc(-c2ccccc2Cl)o1 | 14500 |
| COc1cc(Cl)nc(NC(=S)NC(=O)c2cccnc2Cl)n1 | 2590 |
| COc1cc(OC)nc(NC(=S)NC(=O)COc2ccc(Cl)cc2Cl)n1 | 1890 |
